Source: ChEMBL document CHEMBL5316337, “Critical Role of Position 10 Residue in the Polymyxin Antimicrobial Activity” (J Med Chem, 2023)
≈ marks a conversion by molar mass, not a printed value.

Assays:
Type in all cases: functional
Pseudomonas aeruginosa [1] = assay: Antibacterial activity against Carbapenem-resistant Pseudomonas aeruginosa FADD1-PA022 clinical isolates assessed as reduction in bacterial growth by broth microdilution method
Klebsiella pneumoniae [2] = assay: Antibacterial activity against polymyxin-susceptible Klebsiella pneumoniae ATCC 700721 clinical isolates assessed as reduction in bacterial growth by broth microdilution method
Klebsiella pneumoniae [3] = assay: Antibacterial activity against Carbapenem-resistant Klebsiella pneumoniae FADD1-KP065 clinical isolates assessed as reduction in bacterial growth by broth microdilution method
Klebsiella pneumoniae [4] = assay: Antibacterial activity against Carbapenem-resistant Klebsiella pneumoniae FADD1-KP032 clinical isolates assessed as reduction in bacterial growth by broth microdilution method
Klebsiella pneumoniae [5] = assay: Antibacterial activity against Carbapenem-resistant Klebsiella pneumoniae BM1 clinical isolates assessed as reduction in bacterial growth by broth microdilution method
Pseudomonas aeruginosa [6] = assay: Antibacterial activity against Carbapenem-resistant Pseudomonas aeruginosa FADD1-PA001 clinical isolates assessed as reduction in bacterial growth by broth microdilution method
Acinetobacter baumannii [7] = assay: Antibacterial activity against polymyxin-susceptible Acinetobacter baumannii ATCC 19606 clinical isolates assessed as reduction in bacterial growth by broth microdilution method
Acinetobacter baumannii [8] = assay: Antibacterial activity against Carbapenem-resistant Acinetobacter baumannii FADD1-AB030 clinical isolates assessed as reduction in bacterial growth by broth microdilution method
Pseudomonas aeruginosa [9] = assay: Antibacterial activity against polymyxin-susceptible Pseudomonas aeruginosa FADD1-PA025 clinical isolates assessed as reduction in bacterial growth by broth microdilution method
Enterobacter cloacae [10] = assay: Antibacterial activity against polymyxin-susceptible Enterobacter cloacae FADD1-EC001 clinical isolates assessed as reduction in bacterial growth by broth microdilution method
Enterobacter cloacae [11] = assay: Antibacterial activity against polymyxin-susceptible Enterobacter cloacae FADD1-EC006 clinical isolates assessed as reduction in bacterial growth by broth microdilution method
Klebsiella pneumoniae [12] = assay: Antibacterial activity against Carbapenem-resistant Klebsiella pneumoniae FADD1-KP022 clinical isolates assessed as reduction in bacterial growth by broth microdilution method
Pseudomonas aeruginosa [13] = assay: Antibacterial activity against polymyxin-susceptible Pseudomonas aeruginosa FADD1-PA038 clinical isolates assessed as reduction in bacterial growth by broth microdilution method
Acinetobacter baumannii [14] = assay: Antibacterial activity against Carbapenem-resistant Acinetobacter baumannii FADD1-AB034 clinical isolates assessed as reduction in bacterial growth by broth microdilution method
Acinetobacter baumannii [15] = assay: Antibacterial activity against polymyxin-susceptible Acinetobacter baumannii ATCC 17978 clinical isolates assessed as reduction in bacterial growth by broth microdilution method
Enterobacter cloacae [16] = assay: Antibacterial activity against polymyxin-susceptible Enterobacter cloacae FADD1-EC003 clinical isolates assessed as reduction in bacterial growth by broth microdilution method
Pseudomonas aeruginosa [17] = assay: Antibacterial activity against polymyxin-susceptible Pseudomonas aeruginosa ATCC 27853 clinical isolates assessed as reduction in bacterial growth by broth microdilution method

CC[C@H](C)CCCCC(=O)N[C@@H](CCN)C(=O)N[C@H](C(=O)N[C@@H](CCN)C(=O)N[C@H]1CCNC(=O)[C@H](COC)NC(=O)[C@H](CCN)NC(=O)[C@H](CCN)NC(=O)[C@H](CC(C)C)NC(=O)[C@@H](Cc2ccccc2)NC(=O)[C@H](CCN)NC1=O)[C@@H](C)O
MIC (Pseudomonas aeruginosa [1]): 1 µg/mL (≈ 0.831 µM)
MIC (Klebsiella pneumoniae [2]): 4 µg/mL (≈ 3.32 µM)
MIC (Klebsiella pneumoniae [3]): 1 µg/mL (≈ 0.831 µM)
MIC (Klebsiella pneumoniae [4]): 2 µg/mL (≈ 1.66 µM)
MIC (Klebsiella pneumoniae [5]): 1 µg/mL (≈ 0.831 µM)
MIC (Pseudomonas aeruginosa [6]): 2 µg/mL (≈ 1.66 µM)
MIC (Acinetobacter baumannii [7]): 8 µg/mL (≈ 6.65 µM)
MIC (Acinetobacter baumannii [8]): 1 µg/mL (≈ 0.831 µM)
MIC (Pseudomonas aeruginosa [9]): 2 µg/mL (≈ 1.66 µM)
MIC (Enterobacter cloacae [10]): 8 µg/mL (≈ 6.65 µM)
MIC (Enterobacter cloacae [11]): 32 µg/mL (≈ 26.6 µM)
MIC (Klebsiella pneumoniae [12]): 0.25 µg/mL (≈ 0.208 µM)
MIC (Pseudomonas aeruginosa [13]): 8 µg/mL (≈ 6.65 µM)
MIC (Acinetobacter baumannii [14]): 4 µg/mL (≈ 3.32 µM)
MIC (Acinetobacter baumannii [15]): 2 µg/mL (≈ 1.66 µM)
MIC (Enterobacter cloacae [16]): 8 µg/mL (≈ 6.65 µM)
MIC (Pseudomonas aeruginosa [17]): 0.5 µg/mL (≈ 0.415 µM)

CC[C@H](C)CCCCC(=O)N[C@@H](CCN)C(=O)N[C@H](C(=O)N[C@@H](CCN)C(=O)N[C@H]1CCNC(=O)[C@H](CCCNC(=N)N)NC(=O)[C@H](CCN)NC(=O)[C@H](CCN)NC(=O)[C@H](CC(C)C)NC(=O)[C@@H](Cc2ccccc2)NC(=O)[C@H](CCN)NC1=O)[C@@H](C)O
MIC (Pseudomonas aeruginosa [1]): 1 µg/mL (≈ 0.795 µM)
MIC (Klebsiella pneumoniae [2]): 32 µg/mL (≈ 25.4 µM)
MIC (Klebsiella pneumoniae [3]): 4 µg/mL (≈ 3.18 µM)
MIC (Klebsiella pneumoniae [4]): 32 µg/mL (≈ 25.4 µM)
MIC (Klebsiella pneumoniae [5]): > 32 µg/mL
MIC (Pseudomonas aeruginosa [6]): > 32 µg/mL
MIC (Acinetobacter baumannii [7]): 8 µg/mL (≈ 6.36 µM)
MIC (Acinetobacter baumannii [8]): 8 µg/mL (≈ 6.36 µM)
MIC (Pseudomonas aeruginosa [9]): 8 µg/mL (≈ 6.36 µM)
MIC (Enterobacter cloacae [10]): 32 µg/mL (≈ 25.4 µM)
MIC (Enterobacter cloacae [11]): 32 µg/mL (≈ 25.4 µM)
MIC (Klebsiella pneumoniae [12]): 2 µg/mL (≈ 1.59 µM)
MIC (Pseudomonas aeruginosa [13]): > 32 µg/mL
MIC (Acinetobacter baumannii [14]): 4 µg/mL (≈ 3.18 µM)
MIC (Acinetobacter baumannii [15]): 4 µg/mL (≈ 3.18 µM)
MIC (Enterobacter cloacae [16]): 16 µg/mL (≈ 12.7 µM)
MIC (Pseudomonas aeruginosa [17]): 4 µg/mL (≈ 3.18 µM)

CC[C@H](C)CCCCC(=O)N[C@@H](CCN)C(=O)N[C@H](C(=O)N[C@@H](CCN)C(=O)N[C@H]1CCNC(=O)[C@H](CC(N)=O)NC(=O)[C@H](CCN)NC(=O)[C@H](CCN)NC(=O)[C@H](CC(C)C)NC(=O)[C@@H](Cc2ccccc2)NC(=O)[C@H](CCN)NC1=O)[C@@H](C)O
MIC (Pseudomonas aeruginosa [1]): 1 µg/mL (≈ 0.822 µM)
MIC (Klebsiella pneumoniae [2]): > 32 µg/mL
MIC (Klebsiella pneumoniae [3]): 8 µg/mL (≈ 6.58 µM)
MIC (Klebsiella pneumoniae [4]): > 32 µg/mL
MIC (Klebsiella pneumoniae [5]): > 32 µg/mL
MIC (Pseudomonas aeruginosa [6]): > 32 µg/mL
MIC (Acinetobacter baumannii [7]): > 32 µg/mL
MIC (Acinetobacter baumannii [8]): > 32 µg/mL
MIC (Pseudomonas aeruginosa [9]): 4 µg/mL (≈ 3.29 µM)
MIC (Enterobacter cloacae [10]): > 32 µg/mL
MIC (Enterobacter cloacae [11]): > 32 µg/mL
MIC (Klebsiella pneumoniae [12]): 8 µg/mL (≈ 6.58 µM)
MIC (Pseudomonas aeruginosa [13]): > 32 µg/mL
MIC (Acinetobacter baumannii [14]): > 32 µg/mL
MIC (Acinetobacter baumannii [15]): 16 µg/mL (≈ 13.2 µM)
MIC (Enterobacter cloacae [16]): 32 µg/mL (≈ 26.3 µM)
MIC (Pseudomonas aeruginosa [17]): 32 µg/mL (≈ 26.3 µM)

CC[C@H](C)CCCCC(=O)N[C@@H](CCN)C(=O)N[C@H](C(=O)N[C@@H](CCN)C(=O)N[C@H]1CCNC(=O)[C@H](CCO)NC(=O)[C@H](CCN)NC(=O)[C@H](CCN)NC(=O)[C@H](CC(C)C)NC(=O)[C@@H](Cc2ccccc2)NC(=O)[C@H](CCN)NC1=O)[C@@H](C)O
MIC (Pseudomonas aeruginosa [1]): 0.5 µg/mL (≈ 0.415 µM)
MIC (Klebsiella pneumoniae [2]): 2 µg/mL (≈ 1.66 µM)
MIC (Klebsiella pneumoniae [3]): 2 µg/mL (≈ 1.66 µM)
MIC (Klebsiella pneumoniae [4]): 2 µg/mL (≈ 1.66 µM)
MIC (Klebsiella pneumoniae [5]): 4 µg/mL (≈ 3.32 µM)
MIC (Pseudomonas aeruginosa [6]): 32 µg/mL (≈ 26.6 µM)
MIC (Acinetobacter baumannii [7]): > 32 µg/mL
MIC (Acinetobacter baumannii [8]): 32 µg/mL (≈ 26.6 µM)
MIC (Pseudomonas aeruginosa [9]): 2 µg/mL (≈ 1.66 µM)
MIC (Enterobacter cloacae [10]): 8 µg/mL (≈ 6.65 µM)
MIC (Enterobacter cloacae [11]): > 32 µg/mL
MIC (Klebsiella pneumoniae [12]): 0.5 µg/mL (≈ 0.415 µM)
MIC (Pseudomonas aeruginosa [13]): 8 µg/mL (≈ 6.65 µM)
MIC (Acinetobacter baumannii [14]): 4 µg/mL (≈ 3.32 µM)
MIC (Acinetobacter baumannii [15]): 2 µg/mL (≈ 1.66 µM)
MIC (Enterobacter cloacae [16]): 2 µg/mL (≈ 1.66 µM)
MIC (Pseudomonas aeruginosa [17]): 4 µg/mL (≈ 3.32 µM)

CC[C@H](C)CCCCC(=O)N[C@@H](CCN)C(=O)N[C@H](C(=O)N[C@@H](CCN)C(=O)N[C@H]1CCNC(=O)[C@H](Cc2c[nH]c3ccccc23)NC(=O)[C@H](CCN)NC(=O)[C@H](CCN)NC(=O)[C@H](CC(C)C)NC(=O)[C@@H](Cc2ccccc2)NC(=O)[C@H](CCN)NC1=O)[C@@H](C)O
MIC (Pseudomonas aeruginosa [1]): 2 µg/mL (≈ 1.55 µM)
MIC (Klebsiella pneumoniae [2]): 8 µg/mL (≈ 6.21 µM)
MIC (Klebsiella pneumoniae [3]): 2 µg/mL (≈ 1.55 µM)
MIC (Klebsiella pneumoniae [4]): 4 µg/mL (≈ 3.1 µM)
MIC (Klebsiella pneumoniae [5]): 4 µg/mL (≈ 3.1 µM)
MIC (Pseudomonas aeruginosa [6]): 4 µg/mL (≈ 3.1 µM)
MIC (Acinetobacter baumannii [7]): 2 µg/mL (≈ 1.55 µM)
MIC (Acinetobacter baumannii [8]): 2 µg/mL (≈ 1.55 µM)
MIC (Pseudomonas aeruginosa [9]): 2 µg/mL (≈ 1.55 µM)
MIC (Enterobacter cloacae [10]): 8 µg/mL (≈ 6.21 µM)
MIC (Enterobacter cloacae [11]): 4 µg/mL (≈ 3.1 µM)
MIC (Klebsiella pneumoniae [12]): 1 µg/mL (≈ 0.776 µM)
MIC (Pseudomonas aeruginosa [13]): 4 µg/mL (≈ 3.1 µM)
MIC (Acinetobacter baumannii [14]): 4 µg/mL (≈ 3.1 µM)
MIC (Acinetobacter baumannii [15]): 4 µg/mL (≈ 3.1 µM)
MIC (Enterobacter cloacae [16]): 8 µg/mL (≈ 6.21 µM)
MIC (Pseudomonas aeruginosa [17]): 2 µg/mL (≈ 1.55 µM)

C/C=C1/NC(=O)[C@H](CCN)NC(=O)[C@H](CCN)NC(=O)[C@H](CC(C)C)NC(=O)[C@@H](Cc2ccccc2)NC(=O)[C@H](CCN)NC(=O)[C@@H](NC(=O)[C@H](CCN)NC(=O)[C@@H](NC(=O)[C@H](CCN)NC(=O)CCCC[C@@H](C)CC)[C@@H](C)O)CCNC1=O
MIC (Pseudomonas aeruginosa [1]): 1 µg/mL (≈ 0.844 µM)
MIC (Klebsiella pneumoniae [2]): 16 µg/mL (≈ 13.5 µM)
MIC (Klebsiella pneumoniae [3]): 4 µg/mL (≈ 3.37 µM)
MIC (Klebsiella pneumoniae [4]): 8 µg/mL (≈ 6.75 µM)
MIC (Klebsiella pneumoniae [5]): 8 µg/mL (≈ 6.75 µM)
MIC (Pseudomonas aeruginosa [6]): 4 µg/mL (≈ 3.37 µM)
MIC (Acinetobacter baumannii [7]): 4 µg/mL (≈ 3.37 µM)
MIC (Acinetobacter baumannii [8]): 2 µg/mL (≈ 1.69 µM)
MIC (Pseudomonas aeruginosa [9]): 2 µg/mL (≈ 1.69 µM)
MIC (Enterobacter cloacae [10]): > 32 µg/mL
MIC (Enterobacter cloacae [11]): > 32 µg/mL
MIC (Klebsiella pneumoniae [12]): 2 µg/mL (≈ 1.69 µM)
MIC (Pseudomonas aeruginosa [13]): 16 µg/mL (≈ 13.5 µM)
MIC (Acinetobacter baumannii [14]): 2 µg/mL (≈ 1.69 µM)
MIC (Acinetobacter baumannii [15]): 1 µg/mL (≈ 0.844 µM)
MIC (Enterobacter cloacae [16]): > 32 µg/mL
MIC (Pseudomonas aeruginosa [17]): 2 µg/mL (≈ 1.69 µM)

CC[C@H](C)CCCCC(=O)N[C@@H](CCN)C(=O)N[C@H](C(=O)N[C@@H](CCN)C(=O)N[C@H]1CCNC(=O)[C@H](CCCN)NC(=O)[C@H](CCN)NC(=O)[C@H](CCN)NC(=O)[C@H](CC(C)C)NC(=O)[C@@H](Cc2ccccc2)NC(=O)[C@H](CCN)NC1=O)[C@@H](C)O
MIC (Pseudomonas aeruginosa [1]): > 32 µg/mL
MIC (Klebsiella pneumoniae [2]): 32 µg/mL (≈ 26.3 µM)
MIC (Klebsiella pneumoniae [3]): 4 µg/mL (≈ 3.29 µM)
MIC (Klebsiella pneumoniae [4]): 32 µg/mL (≈ 26.3 µM)
MIC (Klebsiella pneumoniae [5]): > 32 µg/mL
MIC (Pseudomonas aeruginosa [6]): > 32 µg/mL
MIC (Acinetobacter baumannii [7]): 16 µg/mL (≈ 13.2 µM)
MIC (Acinetobacter baumannii [8]): 16 µg/mL (≈ 13.2 µM)
MIC (Pseudomonas aeruginosa [9]): > 32 µg/mL
MIC (Enterobacter cloacae [10]): 32 µg/mL (≈ 26.3 µM)
MIC (Enterobacter cloacae [11]): > 32 µg/mL
MIC (Klebsiella pneumoniae [12]): 4 µg/mL (≈ 3.29 µM)
MIC (Pseudomonas aeruginosa [13]): > 32 µg/mL
MIC (Acinetobacter baumannii [14]): 8 µg/mL (≈ 6.58 µM)
MIC (Acinetobacter baumannii [15]): 4 µg/mL (≈ 3.29 µM)
MIC (Enterobacter cloacae [16]): 32 µg/mL (≈ 26.3 µM)
MIC (Pseudomonas aeruginosa [17]): > 32 µg/mL
